These results are taken from publication PMC6892276 (European Journal of Pharmaceutical Sciences, 2019).

A short description of data set [1]: CLint in cryopreserved human hepatocyte suspensions. It is filed as in vitro ADME. As to conditions: both sexes, pH 7.4, mixed sex. As to the method:
(§1) Cells were stored in the vapour phase of liquid nitrogen and thawed as per the supplier's instructions (rapid thawing at 37 °C, followed by centrifugation at 50 ×g for 5 min in thawing medium). Hepatocytes were re-suspended in a small volume of incubation medium (WME buffered with HEPES (final concentration 24 mM) adjusted to pH 7.4). Cell density was estimated using a haemocytometer and light microscope and viability determined according to the trypan blue exclusion method; cells were subsequently diluted to the required concentration in incubation medium. […]
(§2) For the purpose of CLint determination, samples were analysed using an Agilent 1290 Infinity ultra high-performance liquid chromatography (UHPLC) system coupled to an Agilent 6520 Quadrupole Time-of-flight mass spectrometer (Agilent Technologies, Stockport, UK). […]
(§3) In vitro data (parent compound LC-MS response) was fitted to a non-linear single exponential model using the software GraphPad Prism (v6.07, GraphPad Software, Inc., La Jolla, USA) to determine the elimination rate constant (k). CLint in hepatocytes and liver microsomes was calculated using Eqs. […]

A short description of data set [2]: CLint in cryopreserved minipig hepatocyte suspensions. It is filed as in vitro ADME. As to conditions: Gottingen. As to the method: as §1, §2, §3
A short description of data set [3]: CLint in cryopreserved rat hepatocyte suspensions. As to conditions: Sprague Dawley, pH 7.4, female. It is filed as in vitro ADME. As to the method: as §1, §2, §3
Data set [4] in a line: CLint in human liver microsomes. As to conditions: both sexes, mixed sex, 1 mg/ml, NADPH. It is filed as in vitro ADME. As to the method:
(§4) All incubations of subcellular fractions and recombinant enzymes were conducted at 37 °C and 800 rpm using a Hamilton Microlab Star liquid handling workstation (Hamilton Robotics (Bonaduz, Switzerland)).
(§5) Prior to initiation of the reaction by the addition of NADPH (final concentration 1 mM), an aliquot was removed from each incubation and quenched in ice cold methanol containing internal standard (referred to as T0). NADPH was subsequently added to this solution for matrix matching. The remaining reaction (with addition of NADPH) was allowed to proceed for 60 min. At 0.5, 5, 15, 30 and 60 min aliquots were sampled and quenched as above. Incubations were conducted in singlicate; control incubations (substituting PBS for NADPH) were conducted simultaneously.
as §2, §3
Unbound CLint (CLint,u) was calculated using Eq. (6).(6) CLint,u=CLint/fu

Data set [5] is described as follows: CLint in dog liver microsomes. It is filed as in vitro ADME. As to conditions: Beagle, 1 mg/ml, NADPH. As to the method:
as §4, §5, §2, §3

Data set [6] can be described thus: CLint in rat liver microsomes. It is filed as in vitro ADME. As to conditions: Sprague Dawley, female, 1 mg/ml, NADPH. As to the method:
as §4, §5, §2, §3

Data set [7] is described as follows: CLint in mouse liver microsomes. It is filed as in vitro ADME. As to conditions: ICR/CD-1, liver microsomes, female, 1 mg/ml, NADPH. As to the method: as §4, §5, §2, §3
Data set [8] can be described thus: Protein binding in rCYP (Rapid Equilibrium Dialysis). It is filed as in vitro ADME. As to conditions: human, control rCYP 100 pmol/ml, dialysis 4 h at 37 °C, read-out: fuCYP (fraction unbound in rCYP). As to the method:
(§6) Samples were removed, matrix matched and quenched with methanol containing internal standard; further processing is as described in Section 2.6.
(§7) The fraction unbound (fu) in HLM/rCYP was calculated using Eq. (5).(5) fu=1/1+1/PARreceiver/PARdonor−1 where PAR = Peak Area Ratio of analyte/internal standard.

The nature of data set [9]: Protein binding in HLM (Rapid Equilibrium Dialysis). As to conditions: human, liver microsomes, HLM 1 mg/ml, dialysis 4 h at 37 °C, read-out: fumic (fraction unbound in microsomes). In kind it is in vitro ADME. As to the method: as §6, §7
Data set [10] relates to CYP2A6. On the set-up: method as in Bavetsias et al., 2012. As to conditions: ref Bavetsias et al., 2012; read-out: CYP2A6 inhibition IC50; cited from earlier work.
For data set [11], the system named is CYP3A4. Details: method as in Bavetsias et al., 2012. As to conditions: ref Bavetsias et al., 2012; read-out: CYP3A4 inhibition IC50; cited from earlier work.
Data set [12] deals with HCT116 (human colon carcinoma). Details: method as in Bavetsias et al., 2012. As to conditions: ref Bavetsias et al., 2012; cited from earlier work.
Data set [13] concerns MV4-11 (human FLT3-ITD positive AML). Details: method as in Bavetsias et al., 2012. As to conditions: ref Bavetsias et al., 2012; cited from earlier work.
The subject of data set [14] is MV4-11 xenograft. On the set-up: method as in Bavetsias et al., 2012. As to conditions: MV4-11 xenograft mouse model; ref Bavetsias et al., 2012; cited from earlier work.
In data set [15] the test system is histone H-3 and STAT5 phosphorylation. On the set-up: method as in Bavetsias et al., 2012. As to conditions: p.o. 50 and 100 mg/kg b.i.d., 4-day mouse PK/PD study; ref Bavetsias et al., 2012; cited from earlier work.

Some results are limits rather than exact numbers.

As for `Cc1nn(C)cc1-c1nc2c(N3CCN(Cc4ccc(Cl)cc4)CC3)c(Cl)cnc2[nH]1` [CCT241736, 6-Chloro-7-(4-(4-chlorobenzyl)piperazin-1-yl)-2-(1,3-dimethyl-1Hpyrazol-4-yl)-3H-imidazo[4,5-b] pyridine], the hepatocyte CLint at 1 μM in data set [1] was under 1 µL/min/1e6 cells; in data set [2] (pH 7.4, female), 3.4 µL/min/1e6 cells; in [2] (pH 7.4, male) it was 7 µL/min/1e6 cells; in [3], 10 µL/min/1e6 cells. In addition, the microsomal CLint at 1 μM in [4] was 7.8 ± 1 µL/min/mg; in data set [5] (female) it was 9.5 ± 2.2 µL/min/mg; in data set [5] (male), 7.4 ± 1.4 µL/min/mg; in [6], 2.7 ± 1.8 µL/min/mg; in data set [7], 53 ± 4.1 µL/min/mg. Also, the fraction unbound at 4 h, 1 μM in [8] amounted to 0.0094; in data set [9] it was 0.0018. The IC50 in [10] and in data set [11] was over 10 µM each time. Also, the anti-proliferative activity result in data set [12] and in [13] was “anti-proliferative activity” throughout. The “inhibition of tumour growth” value in [14] is “strong inhibition of tumour growth”. Also, the “biomarker modulation (histone H-3 and STAT5 phosphorylation)” value in [15] was “biomarker modulation”.
